{"source": "patent US10323022B2", "about": "“Pyrrolidinyl urea, pyrrolidinyl thiourea and pyrrolidinyl guanidine compounds as TrkA kinase inhibitors” (Array BioPharma Inc., priority 2011, dated 2019)", "data": [{"biological_target": "TrkA (Homo sapiens (Human), UniProt P04629)", "sequence (P04629 33-796)": "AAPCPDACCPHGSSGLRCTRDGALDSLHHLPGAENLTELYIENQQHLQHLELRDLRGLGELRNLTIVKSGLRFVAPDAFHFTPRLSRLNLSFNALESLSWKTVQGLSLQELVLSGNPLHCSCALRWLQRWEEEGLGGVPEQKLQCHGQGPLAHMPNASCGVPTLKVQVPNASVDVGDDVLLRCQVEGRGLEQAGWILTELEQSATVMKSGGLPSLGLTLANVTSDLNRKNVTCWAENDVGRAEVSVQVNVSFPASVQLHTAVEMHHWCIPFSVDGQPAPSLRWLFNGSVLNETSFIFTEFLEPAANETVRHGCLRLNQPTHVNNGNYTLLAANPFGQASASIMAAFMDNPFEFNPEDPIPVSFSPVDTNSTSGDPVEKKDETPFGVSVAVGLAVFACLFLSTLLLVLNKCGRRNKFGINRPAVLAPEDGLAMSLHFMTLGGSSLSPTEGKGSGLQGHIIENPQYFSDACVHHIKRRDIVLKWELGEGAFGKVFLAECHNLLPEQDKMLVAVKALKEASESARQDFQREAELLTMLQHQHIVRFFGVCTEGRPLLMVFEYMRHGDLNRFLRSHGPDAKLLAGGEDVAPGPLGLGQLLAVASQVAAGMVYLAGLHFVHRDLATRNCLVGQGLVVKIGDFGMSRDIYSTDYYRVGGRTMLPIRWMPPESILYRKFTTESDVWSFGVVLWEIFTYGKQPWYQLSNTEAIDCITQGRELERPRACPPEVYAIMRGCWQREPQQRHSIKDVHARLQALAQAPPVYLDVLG", "assay": "TrkA Omnia Assay", "assay_type": "biochemical", "conditions": "averaged IC50; 20 nM enzyme, 500 μM ATP, 10 μM peptide substrate", "how_it_was_run": "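Recombinant TrkA (20 nM) preincubated 10 min at ambient temperature with compound, then Omnia Tyr Peptide #4 (10 μM) and ATP (500 μM) added in 25 mM MOPS pH 7.5, 5 mM MgCl2, 0.005% Triton X-100. Fluorescence (ex 360/em 485 nm) followed continuously for 70 min; IC50 from initial rates by 4- or 5-parameter logistic fit.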", "units": {"IC50": "µM"}, "values": [{"smiles": "COCCN1C[C@@H](NC(=S)Nc2c(C)c(-c3ccc(=O)n(C)c3)nn2-c2ccccc2)[C@H](c2ccc(F)c(F)c2)C1", "note": "[Example 631, 1-((3S,4R)-4-(3,4-difluorophenyl)-1-(2-methoxyethyl)pyrrolidin-3-yl)-3-(4-methyl-3-(1-methyl-6-oxo-1,6-dihydropyridin-3-yl)-1-phenyl-1H-pyrazol-5-yl)thiourea]", "IC50": "< 0.1"}, {"smiles": "COCCN1C[C@@H](NC(=S)Nc2c(C)c(-c3cnn(C)c3)nn2-c2ccccc2)[C@H](c2ccc(F)c(F)c2)C1", "note": "[Example 632, 1-((3S,4R)-4-(3,4-difluorophenyl)-1-(2-methoxyethyl)pyrrolidin-3-yl)-3-(1′,4-dimethyl-1-phenyl-1H,1′H-3,4′-bipyrazol-5-yl)thiourea]", "IC50": "< 0.1"}, {"smiles": "COCCN1C[C@@H](NC(=S)Nc2c(C)c(-c3cnn(C)c3)nn2-c2ccccc2)[C@H](c2ccc(F)cc2)C1", "note": "[Example 633, 1-((3S,4R)-4-(4-fluorophenyl)-1-(2-methoxyethyl)pyrrolidin-3-yl)-3-(1′,4-dimethyl-1-phenyl-1H, 1′H-3,4′-bipyrazol-5-yl)thiourea]", "IC50": "< 0.1"}, {"smiles": "COCCN1CC(c2ccccc2)[C@H](NC(=O)Nc2c(-c3ccccc3)nn3ccccc23)C1", "note": "(stereo partly shown) [Example 634]", "IC50": "< 0.1"}, {"smiles": "COCCN1C[C@@H](NC(=O)Nc2c(-c3ccccc3)nn3ccccc23)[C@H](c2ccc(F)c(F)c2)C1", "note": "[Example 635, 1-((3S,4R)-4-(3,4-difluorophenyl)-1-(2-methoxyethyl)pyrrolidin-3-yl)-3-(2-phenylpyrazolo[1,5-a]pyridin-3-yl)urea]", "IC50": "< 0.1"}, {"smiles": "COCCN1CC(c2ccccc2)[C@H](NC(=O)Nc2cnn3ccccc23)C1", "note": "(stereo partly shown) [Example 636]", "IC50": "0.1 to 1"}, {"smiles": "COCCN1C[C@@H](NC(=O)Nc2cnn3ccccc23)[C@H](c2ccc(F)c(F)c2)C1", "note": "[Example 637, 1-((3S,4R)-4-(3,4-difluorophenyl)-1-(2-methoxyethyl)pyrrolidin-3-yl)-3-(pyrazolo[1,5-a]pyridin-3-yl)urea]", "IC50": "< 0.1"}, {"smiles": "COCCN1C[C@@H](NC(=O)Nc2c(-c3ccccc3)nn(-c3cnccn3)c2C)[C@H](c2ccc(F)c(F)c2)C1", "note": "[Example 638, 1-((3S,4R)-4-(3,4-difluorophenyl)-1-(2-methoxyethyl)pyrrolidin-3-yl)-3-(5-methyl-3-phenyl-1-(pyrazin-2-yl)-1H-pyrazol-4-yl)urea]", "IC50": "< 0.1"}, {"smiles": "COCCN1C[C@@H](NC(=O)Nc2c(-c3ccccc3)nn(C)c2C)[C@H](c2ccc(F)c(F)c2)C1", "note": "[Example 639, 1-((3S,4R)-4-(3,4-difluorophenyl)-1-(2-methoxyethyl)pyrrolidin-3-yl)-3-(1,5-dimethyl-3-phenyl-1H-pyrazol-4-yl)urea]", "IC50": "< 0.1"}, {"smiles": "COCCN1C[C@@H](NC(=O)Nc2c(-c3ccccc3)nn(C)c2C)[C@H](c2cc(F)cc(F)c2)C1", "note": "[Example 640, 1-((3S,4R)-4-(3,5-difluorophenyl)-1-(2-methoxyethyl)pyrrolidin-3-yl)-3-(1,5-dimethyl-3-phenyl-1H-pyrazol-4-yl)urea]", "IC50": "< 0.1"}, {"smiles": "COCCN1C[C@@H](NC(=O)Nc2c(-c3ccccc3)nn(C(C)C)c2C)[C@H](c2ccc(F)c(F)c2)C1", "note": "[Example 641, 1-((3S,4R)-4-(3,4-difluorophenyl)-1-(2-methoxyethyl)pyrrolidin-3-yl)-3-(1-isopropyl-5-methyl-3-phenyl-1H-pyrazol-4-yl)urea]", "IC50": "0.1 to 1"}, {"smiles": "COCCN1C[C@@H](NC(=O)Nc2c(-c3ccccc3)nn(C(C)C)c2C)[C@H](c2cc(F)cc(F)c2)C1", "note": "[Example 642, 1-((3S,4R)-4-(3,5-difluorophenyl)-1-(2-methoxyethyl)pyrrolidin-3-yl)-3-(1-isopropyl-5-methyl-3-phenyl-1H-pyrazol-4-yl)urea]", "IC50": "0.1 to 1"}, {"smiles": "COCCN1C[C@@H](NC(=O)Nc2c(-c3ccccc3)nn(CC(F)(F)F)c2C)[C@H](c2ccc(F)c(F)c2)C1", "note": "[Example 643, 1-((3S,4R)-4-(3,4-difluorophenyl)-1-(2-methoxyethyl)pyrrolidin-3-yl)-3-(5-methyl-3-phenyl-1-(2,2,2-trifluoroethyl)-1H-pyrazol-4-yl)urea]", "IC50": "< 0.1"}, {"smiles": "CCn1nc(-c2ccccc2)c(NC(=O)N[C@@H]2CN(CCOC)C[C@H]2c2ccc(F)c(F)c2)c1C", "note": "[Example 644, 1-((3S,4R)-4-(3,4-difluorophenyl)-1-(2-methoxyethyl)pyrrolidin-3-yl)-3-(1-ethyl-5-methyl-3-phenyl-1H-pyrazol-4-yl)urea]", "IC50": "< 0.1"}, {"smiles": "CCn1nc(C)c(NC(=O)N[C@@H]2CN(CCOC)C[C@H]2c2ccc(F)c(F)c2)c1-c1ccccc1", "note": "[Example 645, 1-((3S,4R)-4-(3,4-difluorophenyl)-1-(2-methoxyethyl)pyrrolidin-3-yl)-3-(1-ethyl-3-methyl-5-phenyl-1H-pyrazol-4-yl)urea]", "IC50": "< 0.1"}, {"smiles": "COCCN1C[C@@H](NC(=O)Nc2c(C(F)(F)F)nn(C)c2-c2ccccc2)[C@H](c2ccc(F)c(F)c2)C1", "note": "[Example 646, 1-((3S,4R)-4-(3,4-difluorophenyl)-1-(2-methoxyethyl)pyrrolidin-3-yl)-3-(1-methyl-5-phenyl-3-(trifluoromethyl)-1H-pyrazol-4-yl)urea]", "IC50": "0.1 to 1"}, {"smiles": "COCCN1C[C@@H](NC(=O)Nc2c(-c3ccccc3)nn(C)c2C(F)(F)F)[C@H](c2ccc(F)c(F)c2)C1", "note": "[Example 647, 1-((3S,4R)-4-(3,4-difluorophenyl)-1-(2-methoxyethyl)pyrrolidin-3-yl)-3-(1-methyl-3-phenyl-5-(trifluoromethyl)-1H-pyrazol-4-yl)urea]", "IC50": "< 0.1"}, {"smiles": "COCCN1C[C@@H](NC(=O)Nc2cn(-c3ccccc3)nc2C)[C@H](c2ccc(F)c(F)c2)C1", "note": "[Example 648, 1-((3S,4R)-4-(3,4-difluorophenyl)-1-(2-methoxyethyl)pyrrolidin-3-yl)-3-(3-methyl-1-phenyl-1H-pyrazol-4-yl)urea]", "IC50": "< 0.1"}, {"smiles": "COCCN1C[C@@H](NC(=O)Nc2cn(-c3ccccc3)nc2C(F)(F)F)[C@H](c2ccc(F)c(F)c2)C1", "note": "[Example 649, 1-((3S,4R)-4-(3,4-difluorophenyvl)-1-(2-methoxyethyl)pyrrolidin-3-yl)-3-(1-phenyl-3-(trifluoromethyl)-1H-pyrazol-4-yl)urea]", "IC50": "0.1 to 1"}]}]}
